Legend:
bEnd.3 cells = assay: In vitro BBB model, Transwell transport apical-to-basolateral; format: in vitro ADME; details: 100 µM, apical-to-basolateral, 30, 60, and 120 min
Description: The Transwell filters (0.4 µm pore) were used to evaluate the crossing capacity of the BBB of selected compounds. The basolateral side of the wells was filled by DMEM (Gibco, USA) with 10% FBS. Then, bEnd.3 cells were seeded on the apical side of the semi‐permeable filter in a humidified atmosphere. The culture medium was changed on alternate days. To verify if the cell monolayer formed junctions, the resistance was daily monitored by determining the trans‐endothelial electrical resistance. The resistance value of an empty filter was subtracted from each measurement. After reaching the confluence, bEnd.3 monolayer cells were washed three times with PBS, and the basolateral compartment was filled with Hanks' Balanced Salt Solution (HBSS). The permeability experiments across the cell monolayer were performed in the apical‐to‐basolateral direction. Transport experiments were assessed by placing the compounds, prepared in HBSS, on the upper side of the monolayers (100 µM/300 µL). At different time points (30, 60, and 120 min), 500 µL samples were taken from the basolateral side, and to replace the withdrawn volume, the same volume of preheated HBSS was added. The amount of cellular drug uptake was measured using a Waters e2695 system (Waters, USA).

[1] = system: G3BP1 knockdown HT22 cells; assay: Activity of PB3 in G3BP1 knockdown (siRNA) HT22 cells; format: cell-based; details: PB3 50 µM
Description: The CCK‐8 assay kit (Yeasen, China) was used to assess cell viability. All operations were performed following instructions. HT22 cells were seeded into the 96‐well plate (3000 cells per well). The cells were cultured at 37 °C with 5% CO2 in a humidified incubator overnight. After 6 h of OGD, the medium was replaced by DMEM/F‐12 with 10% FBS and 1% penicillin/streptomycin containing PB3 or other compounds and kept in a humidified 5% CO2, 37 °C incubator for 24 h. Then, the cells were washed with PBS, the medium was replaced with DMEM/F‐12 with 10% FBS and 1% penicillin/streptomycin containing 10% CCK‐8 solution, and incubated for 1 h at 37 °C. The absorbance was assessed by a Synergy H1 multi‐mode microplate reader (BioTek, USA) at 450 nm.
Apoptosis level was evaluated by TUNEL staining and flow cytometry. For TUNEL staining, HT22 cells were treated with 4% paraformaldehyde for 15 min. […] Red fluorescence was utilized to identify apoptotic cells, while 4′, 6‐diamidino‐2‐phenylindole (DAPI) was used to counterstain the nuclei. The fluorescence microscope (Carl Zeiss, Germany) was used to obtain images. For flow cytometry, apoptotic cells were determined with the Annexin V‐Alexa Fluor 488/PI apoptosis detection kit (Yeasen, China) by following the instructions. […] Cell apoptosis was immediately determined by Cytek Aurora (Cytek Biosciences, USA). […]

G3BP1 = assay: Immunoblotting of G3BP1 protein level; format: cell-based
Description: Cells and tissues were homogenized in RIPA buffer (Beyotime, China) containing protease inhibitors (Biovision, USA) on ice for 30 min. After centrifugation (13000 r min^−1, 4 °C) for 10 min, the resulting supernatant was collected. The protein concentrations were determined by a BCA protein assay kit (Thermo Scientific, USA). After separating a 10% sodium dodecyl sulfate (SDS)‐polyacrylamide gel, protein on the gel was then transferred onto nitrocellulose membranes (Merck, USA), which were blocked with 5% bovine serum albumin for 1 h to prevent non‐specific binding. Then, the anti‐caspase 3 antibody (catalog no. 9662, Cell Signaling Technology, USA), anti‐Bcl‐2 antibody (catalog no. GTX100064, GeneTex, USA), anti‐G3BP1 antibody (catalog no. 66486‐1‐Ig, Proteintech, China), anti‐β‐tubulin antibody (catalog no. 66240‐1‐Ig, Proteintech, China), and anti‐β‐actin antibody (catalog no. 66009‐1‐Ig, Proteintech, China) were used for treating the membrane overnight at 4 °C. Bound antibodies were detected with the species‐appropriate horseradish peroxidase‐labeled secondary antibody (Jackson ImmunoResearch, USA) using ECL reagents (ShareBio, China). Protein‐specific signals were detected using a Bio‐Rad Imager (Bio‐Rad, USA), and the bands were quantified by densitometric analysis software (ImageJ). β‐tubulin or β‐actin was used as a loading control.

transport efficiency (bEnd.3 cells) | SMILES | cell viability, effect of G3BP1 knockdown [1] | rate of TUNEL‐positive cells [1] | protein level of G3BP1 (G3BP1)
better than that of 1 | CC(C)c1c(O)cc(O)c2c1O[C@H](c1ccc(O)c(O)c1)[C@@H](O)[C@@H]2c1c(O)cc(O)c2c1O[C@H](c1ccc(O)c(O)c1)[C@@H](O)C2 [Compound 6c, 8‐Isopropyl‐(+)‐Catechin‐(4α,8)‐(+)‐Catechin] | – | – | –
– | Oc1cc(O)c2c(c1)O[C@H](c1ccc(O)c(O)c1)[C@@H](O)[C@@H]2c1c(O)cc(O)c2c1O[C@H](c1ccc(O)c(O)c1)[C@@H](O)C2 [Compound 1, procyanidin B3] | inhibited the neuroprotective effects | not significantly changed | did not perturb the protein level of G3BP1

— PMC12677652, “Procyanidin B3 and Its Derivatives Alleviate Neuronal Injury by Targeting G3BP1 for Ischemic Stroke Therapy” (Advanced Science, 2025)
